Laboratory results from patent US6239134A, “Diazole derivatives as serotonergic agents” (American Home Products Corp., priority 2000, dated 2001).
Structures can show the parent of a compound that is named as a salt. Where two headings read alike, the source gives them in different places.

Key:
human 5HT1A receptor [1] = target: T1, human 5HT1A receptor (Homo sapiens, UniProt P08908); assay: 5-HT1A Receptor Intrinsic Activity Assay (agonist mode; reversal of stimulated cAMP in stably transfected CHO cells); type: cell-based; settings: read-out: cAMP Emax
T1 construct: expressed in transfected cells; host or cells: CHO cells, stably transfected
T1 sequence (P08908 1-422): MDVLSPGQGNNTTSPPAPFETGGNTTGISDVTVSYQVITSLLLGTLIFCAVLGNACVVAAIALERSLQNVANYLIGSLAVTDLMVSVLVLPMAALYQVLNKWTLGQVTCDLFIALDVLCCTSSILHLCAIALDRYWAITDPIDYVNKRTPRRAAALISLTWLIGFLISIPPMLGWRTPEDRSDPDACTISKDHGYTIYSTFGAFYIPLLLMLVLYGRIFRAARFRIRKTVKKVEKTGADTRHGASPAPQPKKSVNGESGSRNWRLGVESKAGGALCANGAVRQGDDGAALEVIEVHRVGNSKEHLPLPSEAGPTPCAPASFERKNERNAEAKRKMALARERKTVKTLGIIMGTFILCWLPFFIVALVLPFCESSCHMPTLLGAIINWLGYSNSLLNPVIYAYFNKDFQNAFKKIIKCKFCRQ
Procedure: 5-HT1A Receptor Intrinsic Activity Assay
The intrinsic activity of compounds of the present invention was established by testing the claimed compounds ability to reverse the stimulation of cyclic adenosinemonophosphate (cAMP) in CHO cells stably transfected with the human 5-HT1A receptor.
Stably transfected CHO cells were grown in DMEM containing 10% heat inactivated FBS and non-essential amino acids. The cells are plated at a density of […] per well in a 24 well plate and incubated for 2 days in a CO2 incubator. On the second day, the media is replaced with 0.5 mL treatment buffer (DMEM+25 mM HEPES, 5 mM theophylline, […] pargyline) and incubated for 10 minutes at 37° C. Wells are treated with forskolin ([…]) followed immediately by the test compound ([…] for initial screen) and incubated for an additional 10 minutes at 37° C. The reaction is terminated by removal of the media and addition of 0.5 mL ice cold assay buffer (supplied in the RIA kit). Plates are stored at -20° C. prior to assessment of cAMP formation by RIA. EC50 values are determined for the active test compounds. Compounds shown to have no agonist activities (Emax=0%) are further analyzed for their ability to reverse agonist induced activity. In separate experiments, 6 concentrations of antagonist are preincubated for 20 minutes prior to the addition of agonist and forskolin. Cells are harvested as described above. The cAMP kit is supplied by Amersham and the RIA is performed as per kit instructions, and calculations of IC50 performed by GraphPad Prism.

human 5HT1A receptor [2] = target: T1, human 5HT1A receptor; assay: 5-HT1A Receptor Binding Assay (displacement of [3H] 8-OH-DPAT in stably transfected CHO cells); settings: @ 1 _M, single point assay
Procedure: 5-HT1A Receptor Binding Assay
High affinity for the serotonin 5-HT1A receptor was established by testing the claimed compound's ability to displace [3H] 8-OH-DPAT binding in CHO cells stably transfected with the human 5HT1A receptor. Stably transfected CHO cells are grown in DMEM containing 10% heat inactivated FBS and non-essential amino acids. Cells are scraped off the plate, transferred to centrifuge tubes, and washed twice by centrifugation (2000 rpm for 10 min., 4° C.) in buffer (50 mM Tris pH 7.5). The resulting pellets are aliquoted and placed at -80° C. On the day of assay, the cells are thawed on ice and resuspended in buffer. The binding assay is performed in a 96 well microtiter plate in a total volume of […]. Non-specific binding is determined in the presence of […], final ligand concentration is 1.5 nM. Following a 30 minute incubation at room temperature, the reaction is terminated by the addition of ice cold buffer and rapid filtration through a GF/B filter presoaked for 30 minutes in 0.5% PEI. Compounds are initially tested in a single point assay to determine percent inhibition at […], and Ki values are determined for the active compounds.

[3] = forskolin-stimulated cAMP, CHO cells

Row | SMILES | Emax (human 5HT1A receptor [1]; [3]) [%] | further results
1 | O=C(N[C@@H](Cc1ccccc1)CN1CCN(c2nsnc2Cl)CC1)C1CCCCC1 [Compound 4, Cyclohexanecarboxylic acid {(1S)-1-benzyl-2-(4-(4-chloro[1,2,5}thiadiazol-3-yl)piperazin-1-yl]ethyl}amide fumarate] |  | Emax (human 5HT1A receptor [1]; CHO): 93%
2 | COc1nsnc1N1CCN(C[C@@H](Cc2ccccc2)N(C)C(=O)C2CCCCC2)CC1 [Compound 8, Cyclohexanecarboxylic acid {(1R)-1-benzyl-2-[4-(4-methoxy-[1,2,5]thiadiazol-3-yl)-piperazine-1-yl]ethyl}methyl amide] | 0 | 
3 | CN(C(=O)C1CCCCC1)[C@H](Cc1ccccc1)CN1CCN(c2nsnc2Cl)CC1 [Compound 7] | 0 | 
4 | O=C(N[C@@H](Cc1ccccc1)CN1CCN(c2nsnc2Cl)CC1)c1ccccn1 [Compound 6, Pyridine-2-carboxylic acid {(1S)-1-benzyl-2,3-[4(4-chloro[1,2,5]thiadiazol-3-yl)piperazin-1-yl]ethyl}amide] |  | 5-HT1A binding, percent inhibition (human 5HT1A receptor [2]): 47%
5 | COc1nsnc1N1CCN(C[C@@H](Cc2cccnc2)NC(=O)C2(C)CCCCC2)CC1 [Compound 11, 1-Methylcyclohexanecarboxylic acid {(1R)-2-[4-(4-methoxy-[1,2,5]thiadiazol-3-yl)-piperazin-1-yl]-1-pyridin-3-ylmethylethyl}amide] | 0 | 
